# Measured values: patent US6017911A, “Pyridonecarboxylic acid derivatives and intermediates for the synthesis thereof” (Dainippon Pharmaceutical Co., Ltd., priority 1996, dated 2000)
# Read-outs that look alike come from different tables or passages of the source.
# Tests used:
# [1] = system: Staphylococcus aureus 50774; assay: In vitro antibacterial activity (MIC), Staphylococcus aureus 50774; type: cell-based
# [2] = system: Staphylococcus aureus MS16405; assay: In vitro antibacterial activity (MIC), Staphylococcus aureus MS16405; type: cell-based
# [3] = system: Escherichia coli NIHJ JC-2; assay: In vitro antibacterial activity (MIC), Escherichia coli NIHJ JC-2; type: cell-based; settings: NIHJJC2, read-out: Minimum inhibitory concentration (MIC)
# [4] = system: Pseudomonas aeruginosa No 12; assay: In vitro antibacterial activity (MIC), Pseudomonas aeruginosa No 12; type: cell-based; settings: NO12, read-out: Minimum inhibitory concentration (MIC)
# [5] = system: Staphylococcus aureus 50774; assay: Effect on systemic infection in mice; type: in vivo, mice (male Std-ddy strain); settings: 168 h; Staphylococcus aureus 50774 i.p. infection; oral, twice (immediately and 6 h after infection); survival 7 days after infection
# Experimental: The effects (ED50; mg/kg) on systemic infection in mice were determined as follows: Male Std-ddy strain mice (weighing about 20 g) were infected with each of the pathogenic bacteria shown in Table 2 by administering 5×10^3 viable cells intraperitoneally to each mouse. Then, a suspension of each test compound in 0.4% carboxymethylcellulose was orally administered twice, i.e., immediately after infection and 6 hours after infection. Seven days after infection, the ED50 value was calculated from the survival rate of each mouse group by probit analysis.
# As a reference compound, there was used enoxacin [1-ethyl-6-fluoro-1,4-dihydro-4-oxo-7-(1-piperazinyl-1,8-naphthyridine-3-carboxylic acid; hereinafter abbreviated as ENX] that is an excellent antibacterial agent currently on the market.
# The test compounds shown in the following Tables 1 and 2 are identified by the respective numbers of the Examples which will be given later.
# [6] = Staphylococcus aureus 50774, read-out: Minimum inhibitory concentration (MIC)
# [7] = Staphylococcus aureus, MS16405, read-out: Minimum inhibitory concentration (MIC)
# [8] = Staphylococcus aureus MS16405, read-out: Minimum inhibitory concentration (MIC)
Compound,"MIC [1, 6] [µg/mL]",MIC [3] [µg/mL],MIC [4] [µg/mL],"MIC [2, 8] [µg/mL]","MIC [2, 7] [µg/mL]",ED50 [5] [mg/kg],"MIC ([1]; Staphylococcus aureus, 50774, read-out: Minimum inhibitory concentration (MIC)) [µg/mL]"
COc1c(N2C[C@H](N)[C@H]3OCCC[C@H]32)c(F)cc2c(=O)c(C(=O)O)cn(C3CC3)c12 (relative stereo) [Example 10],0.013,0.1,3.13,,0.39,0.465,
"CCn1cc(C(=O)O)c(=O)c2cc(F)c(N3CCNCC3)nc21 [ENX, reference compound]",,0.05,0.78,,100,9.89,0.39
COc1c(N2C[C@@H](N)[C@H]3OCC[C@H]32)c(F)c(N)c2c(=O)c(C(=O)O)cn(C3CC3)c12 (relative stereo) [Example 13],0.013,0.05,0.78,1.56,,0.778,
COc1c(N2C[C@H](N)[C@H]3OCCC[C@H]32)c(F)c(N)c2c(=O)c(C(=O)O)cn(C3CC3)c12 (relative stereo) [Example 12],0.013,0.1,1.56,0.39,,0.715,
CN[C@H]1CN(c2c(F)c(C)c3c(=O)c(C(=O)O)cn(C4CC4)c3c2OC)[C@@H]2CCO[C@H]12 (relative stereo) [Example 8],0.013,0.2,1.56,3.13,,0.345,
COc1c(N2C[C@@H](N)[C@H]3OCCC[C@H]32)c(F)cc2c(=O)c(C(=O)O)cn(C3CC3)c12 (relative stereo) [Example 19],0.013,0.1,1.56,0.78,,0.928,
N[C@H]1CN(c2nc3c(cc2F)c(=O)c(C(=O)O)cn3-c2ccc(F)cc2F)[C@@H]2CCO[C@@H]21 (relative stereo) [Example 11],0.013,0.25,0.39,,,0.579,
CN[C@H]1CN(c2nc3c(cc2F)c(=O)c(C(=O)O)cn3-c2ccc(F)cc2F)[C@@H]2CCO[C@H]12 (relative stereo) [Example 17],0.05,0.1,0.78,,,0.78,

# Now from value to compound, other results behind:
"MIC [1, 6] [µg/mL]",MIC [3] [µg/mL],MIC [4] [µg/mL],"MIC [2, 8] [µg/mL]",Compound,"MIC [2, 7] [µg/mL]",ED50 [5] [mg/kg],"MIC ([1]; Staphylococcus aureus, 50774, read-out: Minimum inhibitory concentration (MIC)) [µg/mL]"
0.05,0.05,1.56,6.25,N#Cc1c(N2C[C@@H](N)[C@H]3OCCC[C@H]32)c(F)cc2c(=O)c(C(=O)O)cn(C3CC3)c12 (relative stereo) [Example 34],,,
0.05,0.013,0.39,,N[C@H]1CN(c2cc3c(cc2F)c(=O)c(C(=O)O)cn3C2CC2)[C@@H]2CCO[C@@H]21 (relative stereo) [Example 26],,,
0.013,0.1,1.56,0.78,COc1c(N2C[C@@H](N)[C@H]3OCCC[C@H]32)c(F)c(N)c2c(=O)c(C(=O)O)cn(C3CC3)c12 (relative stereo) [Example 32],,,
0.013,0.05,0.78,3.13,Cc1c(F)c(N2C[C@@H](N)[C@H]3OCCC[C@H]32)c(C#N)c2c1c(=O)c(C(=O)O)cn2C1CC1 (relative stereo) [Example 30],,,
0.025,0.025,1.56,1.56,C#Cc1c(N2C[C@H](N)[C@H]3OCC[C@H]32)c(F)cc2c(=O)c(C(=O)O)cn(C3CC3)c12 (relative stereo) [Example 27],,,
0.05,0.1,3.13,6.25,N[C@@H]1CN(c2c(F)cc3c(=O)c(C(=O)O)cn(C4CC4)c3c2OC(F)F)[C@@H]2CCO[C@H]12 (relative stereo) [Example 37],,,
0.1,0.05,1.56,3.13,CN[C@H]1CN(c2c(F)cc3c(=O)c(C(=O)O)cn(C4CC4)c3c2Cl)[C@@H]2CCO[C@H]12 (relative stereo) [Example 20],,,
0.025,0.1,3.13,1.56,"COc1c(N2C[C@@H](N)[C@H]3OC(C)C[C@H]32)c(F)cc2c(=O)c(C(=O)O)cn(C3CC3)c12 (relative stereo) [Example 40, 7-[(1R*,5R*,8R*)-8-amino-3-methyl-2-oxa-6-azabicyclo[3.3.0]oct-6-yl]-1-cyclopropyl-6-fluoro-1,4-dihydro-8-methoxy-4-oxoquinoline-3-carboxylic acid]",,,
